{"source": "paper PMC11213902", "about": "“Enhancing hepatoprotective action: oxyberberine amorphous solid dispersion system targeting TLR4” (Scientific Reports, 2024)", "key": {"[1]": {"tested_on": "mRNA expression of TLR4, MyD88, IL-1β, and IL-6", "test": "LPS/D-GalN-induced ALI, quantitative PCR of liver tissues", "format": "in vivo, C57BL/6 mice", "conditions": "P < 0.01", "description": "All mice were randomly divided into six groups (n = 8): normal control group (NC); LPS/D-GalN group; OBB-ASDs25 group (25 mg/kg OBB-HPMCAS); OBB-ASDs50 group (50 mg/kg OBB-HPMCAS); OBB-SUS group (50 mg/kg OBB suspension); Silymarin group (100 mg/kg Silymarin). The drug dosage design for the ALI trial was primarily based on our previous research findings[25] and preclinical experiments. Except for NC and LPS/D-GalN groups, all other groups of mice were respectively pretreated by gavage with the corresponding dose of OBB-ASDs, OBB-SUS, and Silymarin once daily for 7 consecutive days. Mice in NC and LPS/D-GalN group were given the same volume of saline by intragastric administration. At 2 h postdose, all mice (except the NC group) were exposed to 30 μg/kg LPS and 600 mg/kg D-GalN. Mice in NC group were received the same volume of PBS intraperitoneally. After challenging for 6 h, blood samples were collected from the eyeball vein under 2% sodium pentobarbital anesthesia. Subsequently, the liver was immediately dissected, weighed, washed with saline, and stored at - 80 °C until further analyzed. […] Quantitative PCR was performed on an Applied Biosystems 7500 Real-Time system (ABI 7500, RRID: SCR_018051). Primer sequences against mouse cDNAs used in qPCR were listed as follows: TLR4, [NT] (reverse); MyD88, […] (reverse); IL-6, [NT] (reverse); IL-1β, [NT] (reverse); and GAPDH, […] (reverse)."}, "[2]": {"test": "Preliminary experiment: absorption and oral bioavailability", "format": "in vivo", "conditions": "pure OBB"}, "[3]": {"test": "In vivo oral bioavailability study", "parameters": "species or system SD rats", "conditions": "male, rat plasma OBB, 100 mg/kg, n = 6, mean ± SD", "description": "Male SD rats weighing 220 ± 15 g were obtained from the Guangdong Medical Laboratory Animal Center (GDMLAC, Guangzhou, China). After fasting overnight, six rats were taken in each group, based on respective treatment at a dose of 100 mg/kg each: OBB-HPMCAS and OBB-SUS (OBB suspension). After isoflurane anesthesia, blood samples were collected from the posterior orbital venous plexus at 5, 10, 20, 30, 60, 90, 120, 180, 240, 360, 480, 720, and 1440 min, respectively. After centrifugation (12,000 rpm, 5 min), plasma was collected and stored at − 80 °C for further analysis. For deproteinization of plasma, ethyl acetate (200 μL) was added to the mixture and vortexed for 3 min. After centrifugation for […], the supernatant was collected and vacuum dried at 40 °C, − 0.8 Mpa. The residue was redissolved with 100 μL methanol/water (50:50, v/v). After centrifugation (12,000 rpm, 10 min), the supernatant was analyzed by LC–MS/MS system. Pharmacokinetic parameters were calculated based on the plasma pharmacokinetics of OBB. The peak concentration (Cmax), time of the peak concentration (Tmax), half-life (T1/2), and area under the profile from time 0 to 24 h (AUC0-24), were calculated using a DAS software (Version 2.0; Drug And Statistics, Shanghai, China, RRID: SCR_022672)."}, "kidneys": {"tested_on": "kidneys", "test": "Chronic nephrotoxicity assessment (kidney HE staining)", "format": "in vivo, C57BL/6 mice", "conditions": "mice, oral, 50 mg/kg, continuous administration for 4, 8, and 16 weeks", "description": "Male C57BL/6 mice were orally administered OBB and OBB-HPMCAS at a dose of 50 mg/kg for 16 weeks. Kidney tissues were collected at 4, 8, and 16 weeks for HE staining to observe the long-term effects of OBB administration on the kidneys."}, "[4]": {"tested_on": "hepatic inflammatory mediators and oxidative stress in ALI mice", "test": "LPS/D-GalN-induced ALI, liver biochemical assessment (oxidative and inflammatory stress)", "format": "in vivo, C57BL/6 mice", "description": "(§1) All mice were randomly divided into six groups (n = 8): normal control group (NC); LPS/D-GalN group; OBB-ASDs25 group (25 mg/kg OBB-HPMCAS); OBB-ASDs50 group (50 mg/kg OBB-HPMCAS); OBB-SUS group (50 mg/kg OBB suspension); Silymarin group (100 mg/kg Silymarin). The drug dosage design for the ALI trial was primarily based on our previous research findings[25] and preclinical experiments. Except for NC and LPS/D-GalN groups, all other groups of mice were respectively pretreated by gavage with the corresponding dose of OBB-ASDs, OBB-SUS, and Silymarin once daily for 7 consecutive days. Mice in NC and LPS/D-GalN group were given the same volume of saline by intragastric administration. At 2 h postdose, all mice (except the NC group) were exposed to 30 μg/kg LPS and 600 mg/kg D-GalN. Mice in NC group were received the same volume of PBS intraperitoneally. After challenging for 6 h, blood samples were collected from the eyeball vein under 2% sodium pentobarbital anesthesia. Subsequently, the liver was immediately dissected, weighed, washed with saline, and stored at − 80 °C until further analyzed.\nFresh liver tissues were homogenized in Tris–HCl buffer (pH 7.4) and centrifuged at 4500 rpm for 15 min (4 °C). Subsequently, the supernatants were collected and assayed for MDA, SOD, GSH, MCP-1, TNF-α, IL-1β, and IL-6 using its specific commercially available assay kit following the manufacturer’s instructions."}, "[5]": {"tested_on": "ALI challenged by LPS/D-GalN", "parameters": "method as in PMID 35691465", "conditions": "previous research ref 8; cited from earlier work"}, "[6]": {"parameters": "method as in PMID 30599908", "conditions": "cited from earlier work"}, "[7]": {"tested_on": "LPS/D-GalN-induced acute liver injury (ALI) mice", "test": "LPS/D-GalN-induced ALI, liver function analysis (serum ALT, AST)", "format": "in vivo, C57BL/6 mice", "conditions": "gavage once daily 7 days; OBB-ASDs 25 and 50 mg/kg, OBB-SUS 50 mg/kg, Silymarin 100 mg/kg; P < 0.05", "description": "as §1\nAfter centrifugated at 3000 g for 10 min, serum was acquired and the activities of ALT and AST were measured using commercial kits (Nanjing Jiancheng, China) following the manufacturer’s instructions."}, "[8]": {"tested_on": "non-alcoholic fatty liver disease (NAFLD)", "parameters": "method as in PMID 33831691", "conditions": "cited from earlier work"}, "[9]": {"test": "In vitro dissolution study (paddle method)", "format": "physicochemical", "conditions": "0.3% SDS medium, 37 °C", "description": "The dissolution Apparatus II (stirring paddle method) was utilized for the in vitro dissolution studies at a rotation speed of 100 ± 1 rpm in 250 mL 0.3% (w/v) sodium dodecyl sulfate (SDS) aqueous solution medium with a ZRS-8G dissolution tester (Tianjin Haiyida Technology Co., Ltd, Tianjin, China). All experiments were performed at 37 ± 0.5 °C. The OBB-ASDs samples were weighed to be equivalent to 2 mg of OBB. At predetermined time points (0, 5, 10, 20, 30, 60, and 90 min), 0.5 mL of sample solution was taken out and replaced with the same volume of fresh SDS solution (37 ± 0.5 °C). After being filtered through a 0.22 μm syringe filter, the filtered samples were collected and analyzed by HPLC."}, "[10]": {"tested_on": "LPS/D-GalN-induced acute liver injury (ALI) mice", "test": "LPS/D-GalN-induced ALI, liver pathological changes (H&E)", "format": "in vivo, C57BL/6 mice", "conditions": "gavage once daily 7 days; OBB-ASDs 25 and 50 mg/kg, OBB-SUS 50 mg/kg, Silymarin 100 mg/kg", "description": "as §1\nLiver tissue pathology was evaluated by regular hematoxylin–eosin (H&E) staining. […] According to the scoring system, liver injury was evaluated by pathologists blinded to the experimental protocol. Scores were determined as Dkhil et al. previously described (Table 3)[26]."}, "[11]": {"conditions": "higher in LPS/D-GalN challenged mice"}, "[12]": {"conditions": "qRT-PCR, elevation after LPS/D-GalN exposure"}, "[13]": {"conditions": "compared with the LPS/D-GalN group"}, "[14]": {"conditions": "pretreatment 7 days, OBB-ASDs 25 and 50 mg/kg, OBB-SUS 50 mg/kg, Silymarin 100 mg/kg, vs LPS/D-GalN group"}}, "data": [{"smiles": "COc1ccc2cc3n(c(=O)c2c1OC)CCc1cc2c(cc1-3)OCO2", "note": "[OBB, 8-Oxyberberine]", "values": [{"measurement": "MyD88 mRNA expression (real-time PCR)", "setting": "[1]; [11]", "result": "restored"}, {"measurement": "TLR4 mRNA expression (real-time PCR)", "setting": "[1]; [11]", "result": "restored"}, {"measurement": "IL-1β mRNA expression level in liver", "setting": "[1]; [12]", "result": "markedly restore"}, {"measurement": "IL-6 mRNA expression level in liver", "setting": "[1]; [12]", "result": "markedly restore"}, {"measurement": "absorption and oral bioavailability", "setting": "[2]", "result": "poor"}, {"measurement": "Cmax", "setting": "[3]", "result": "169 ± 18.6", "unit": "ng/mL"}, {"measurement": "Tmax", "setting": "[3]", "result": "4.67 ± 0.52", "unit": "h"}, {"measurement": "half-life", "setting": "[3]", "result": "2.99 ± 0.42", "unit": "h"}, {"measurement": "AUC(0-t)", "setting": "[3]; read-out: AUC0-24", "result": "1260 ± 130", "unit": "ng·h/mL"}, {"measurement": "kidney damage (HE staining)", "setting": "kidneys", "result": "no significant kidney damage"}, {"measurement": "hepatic CAT content", "setting": "[4]; [13]", "result": "increasing"}, {"measurement": "hepatic GSH content", "setting": "[4]; [13]", "result": "increasing"}, {"measurement": "hepatic MDA level", "setting": "[4]; [13]", "result": "dramatically suppressed"}, {"measurement": "hepatic SOD content", "setting": "[4]; [13]", "result": "increasing"}, {"measurement": "IL-1β level in liver", "setting": "[4]; [14]", "result": "largely decreased"}, {"measurement": "IL-6 level in liver", "setting": "[4]; [14]", "result": "largely decreased"}, {"measurement": "MCP-1 level in liver", "setting": "[4]; [14]", "result": "largely decreased"}, {"measurement": "TNF-α level in liver", "setting": "[4]; [14]", "result": "largely decreased"}, {"measurement": "effect on ALI challenged by LPS/D-GalN", "setting": "[5]", "result": "effectively attenuated"}, {"measurement": "solubility in water", "setting": "[6]", "result": "poorly soluble in water"}, {"measurement": "serum ALT level vs LPS/D-GalN group", "setting": "[7]", "result": "extremely reduced"}, {"measurement": "serum AST level vs LPS/D-GalN group", "setting": "[7]", "result": "extremely reduced"}, {"measurement": "effect on non-alcoholic fatty liver disease (NAFLD)", "setting": "[8]", "result": "pronounced therapeutic effect"}, {"measurement": "release / dissolution rate, pure OBB compared with formulations", "setting": "[9]", "result": "significantly slower"}, {"measurement": "liver tissue injury (H&E staining) vs model group", "setting": "[10]", "result": "conspicuously mitigated"}]}]}
